Assay results taken from ChEMBL document CHEMBL1641363, “Fragment-based discovery of 6-substituted isoquinolin-1-amine based ROCK-I inhibitors” (Bioorg Med Chem Lett, 2011).

How the values were obtained:
[1] = Half life in human liver microsome; type: ADME; details: liver microsomes
[2] = target: T1, Dual specificity tyrosine-phosphorylation-regulated kinase 3 (Homo sapiens) (UniProt O43781); details: 10 uM
T1 sequence (whole entry): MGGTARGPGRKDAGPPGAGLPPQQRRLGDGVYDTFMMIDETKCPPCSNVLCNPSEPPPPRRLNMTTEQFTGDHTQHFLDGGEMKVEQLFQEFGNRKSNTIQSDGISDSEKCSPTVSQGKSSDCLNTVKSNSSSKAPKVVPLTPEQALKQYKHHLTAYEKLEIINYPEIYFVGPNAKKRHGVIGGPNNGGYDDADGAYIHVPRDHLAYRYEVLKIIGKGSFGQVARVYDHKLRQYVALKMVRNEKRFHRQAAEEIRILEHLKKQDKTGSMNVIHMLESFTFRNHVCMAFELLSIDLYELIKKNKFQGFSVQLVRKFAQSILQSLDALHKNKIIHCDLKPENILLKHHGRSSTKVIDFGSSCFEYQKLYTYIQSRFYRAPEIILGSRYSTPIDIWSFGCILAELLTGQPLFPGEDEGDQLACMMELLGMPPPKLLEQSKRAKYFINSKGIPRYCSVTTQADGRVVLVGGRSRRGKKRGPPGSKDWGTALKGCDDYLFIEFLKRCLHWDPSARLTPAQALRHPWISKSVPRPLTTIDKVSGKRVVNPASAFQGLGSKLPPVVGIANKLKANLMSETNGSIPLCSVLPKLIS
Description: Inhibition of DYRK3 at 10 uM

[3] = Volume of distribution at steady state in C57 mouse; type: ADME, organism-based; details: in vivo, read-out: Vdss
[4] = target: T2, Serine/threonine-protein kinase Sgk2 (Homo sapiens) (UniProt Q9HBY8); details: 10 uM
T2 sequence (whole entry): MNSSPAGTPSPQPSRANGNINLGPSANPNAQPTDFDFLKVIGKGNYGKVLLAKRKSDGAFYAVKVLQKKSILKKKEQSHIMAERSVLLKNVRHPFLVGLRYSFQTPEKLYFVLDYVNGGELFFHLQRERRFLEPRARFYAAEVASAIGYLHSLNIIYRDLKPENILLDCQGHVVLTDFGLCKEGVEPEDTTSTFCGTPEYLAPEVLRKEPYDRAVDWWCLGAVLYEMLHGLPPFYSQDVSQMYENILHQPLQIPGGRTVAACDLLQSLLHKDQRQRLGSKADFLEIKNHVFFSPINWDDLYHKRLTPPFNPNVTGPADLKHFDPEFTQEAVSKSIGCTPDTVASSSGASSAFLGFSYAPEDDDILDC
Description: Inhibition of SGK2 at 10 uM

[5] = target: Proto-oncogene tyrosine-protein kinase receptor Ret (Homo sapiens) (UniProt P07949); details: 10 uM
Description: Inhibition of RET at 10 uM

[6] = target: T3, Serine/threonine-protein kinase D2 (Homo sapiens) (UniProt Q9BZL6); details: 10 uM
T3 sequence (whole entry): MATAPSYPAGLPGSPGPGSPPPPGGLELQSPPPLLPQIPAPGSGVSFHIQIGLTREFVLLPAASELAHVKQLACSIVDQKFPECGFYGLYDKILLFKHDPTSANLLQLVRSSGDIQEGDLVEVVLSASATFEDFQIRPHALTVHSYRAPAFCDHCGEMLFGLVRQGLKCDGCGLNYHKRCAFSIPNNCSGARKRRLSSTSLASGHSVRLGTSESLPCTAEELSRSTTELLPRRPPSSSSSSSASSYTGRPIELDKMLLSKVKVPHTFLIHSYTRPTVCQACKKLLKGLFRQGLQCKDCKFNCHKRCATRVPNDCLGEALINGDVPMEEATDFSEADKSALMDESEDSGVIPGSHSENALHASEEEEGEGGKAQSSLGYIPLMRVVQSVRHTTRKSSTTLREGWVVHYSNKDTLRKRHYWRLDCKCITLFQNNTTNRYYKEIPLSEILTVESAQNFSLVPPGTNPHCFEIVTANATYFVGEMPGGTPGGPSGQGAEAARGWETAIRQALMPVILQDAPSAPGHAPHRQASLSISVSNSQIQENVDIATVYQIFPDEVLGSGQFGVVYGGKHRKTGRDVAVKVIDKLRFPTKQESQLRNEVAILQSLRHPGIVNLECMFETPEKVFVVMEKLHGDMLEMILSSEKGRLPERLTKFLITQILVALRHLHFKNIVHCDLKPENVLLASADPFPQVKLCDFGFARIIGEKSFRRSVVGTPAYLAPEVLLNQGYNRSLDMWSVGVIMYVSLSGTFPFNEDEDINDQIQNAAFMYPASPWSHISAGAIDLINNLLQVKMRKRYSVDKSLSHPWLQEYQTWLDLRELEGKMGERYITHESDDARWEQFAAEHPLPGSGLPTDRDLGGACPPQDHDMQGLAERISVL
Description: Inhibition of PKD at 10 uM

[7] = Permeability from basolateral to apical side of human Caco2 cells; type: ADME, cell-based; details: Caco-2, read-out: permeability
[8] = target: Rho-associated protein kinase 1 (Homo sapiens, UniProt Q13464); details: 10 uM
Sequence of Rho-associated protein kinase 1 (Q13464 2-1354 limits assumed): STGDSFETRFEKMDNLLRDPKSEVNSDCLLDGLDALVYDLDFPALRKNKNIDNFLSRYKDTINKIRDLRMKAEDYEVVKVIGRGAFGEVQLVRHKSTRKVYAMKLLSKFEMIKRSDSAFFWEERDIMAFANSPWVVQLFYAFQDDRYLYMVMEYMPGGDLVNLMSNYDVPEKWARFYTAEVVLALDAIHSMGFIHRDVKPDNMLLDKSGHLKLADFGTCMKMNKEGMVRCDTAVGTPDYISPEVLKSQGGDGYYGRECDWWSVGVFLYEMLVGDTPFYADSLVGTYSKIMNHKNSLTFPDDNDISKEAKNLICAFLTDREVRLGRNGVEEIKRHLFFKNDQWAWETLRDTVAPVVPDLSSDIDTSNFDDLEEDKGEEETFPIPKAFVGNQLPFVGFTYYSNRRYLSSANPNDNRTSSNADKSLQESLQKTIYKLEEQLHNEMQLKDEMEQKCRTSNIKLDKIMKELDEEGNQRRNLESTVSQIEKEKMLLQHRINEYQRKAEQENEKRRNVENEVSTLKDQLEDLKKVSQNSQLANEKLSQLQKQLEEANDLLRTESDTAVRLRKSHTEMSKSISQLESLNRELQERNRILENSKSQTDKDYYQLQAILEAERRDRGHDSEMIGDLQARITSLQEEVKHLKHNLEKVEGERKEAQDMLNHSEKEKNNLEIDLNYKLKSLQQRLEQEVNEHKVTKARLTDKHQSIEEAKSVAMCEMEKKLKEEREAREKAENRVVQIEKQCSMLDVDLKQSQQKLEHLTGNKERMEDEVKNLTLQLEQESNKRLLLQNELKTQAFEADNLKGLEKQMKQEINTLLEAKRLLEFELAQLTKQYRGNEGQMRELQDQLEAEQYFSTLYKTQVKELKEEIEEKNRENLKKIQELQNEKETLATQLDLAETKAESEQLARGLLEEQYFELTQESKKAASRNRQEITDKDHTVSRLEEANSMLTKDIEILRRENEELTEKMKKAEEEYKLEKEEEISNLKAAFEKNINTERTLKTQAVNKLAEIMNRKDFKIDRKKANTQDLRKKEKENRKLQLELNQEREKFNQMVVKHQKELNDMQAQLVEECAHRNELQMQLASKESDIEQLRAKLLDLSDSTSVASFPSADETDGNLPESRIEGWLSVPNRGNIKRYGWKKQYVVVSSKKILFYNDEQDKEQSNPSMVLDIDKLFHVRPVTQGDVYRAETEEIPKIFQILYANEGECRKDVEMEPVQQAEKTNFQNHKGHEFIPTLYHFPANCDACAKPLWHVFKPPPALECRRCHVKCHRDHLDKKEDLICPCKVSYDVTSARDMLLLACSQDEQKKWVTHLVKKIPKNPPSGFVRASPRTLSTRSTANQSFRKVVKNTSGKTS
Description: Inhibition of ROCK1 at 10 uM

Sequence of Proto-oncogene tyrosine-protein kinase receptor Ret (Homo sapiens) (P07949 whole entry): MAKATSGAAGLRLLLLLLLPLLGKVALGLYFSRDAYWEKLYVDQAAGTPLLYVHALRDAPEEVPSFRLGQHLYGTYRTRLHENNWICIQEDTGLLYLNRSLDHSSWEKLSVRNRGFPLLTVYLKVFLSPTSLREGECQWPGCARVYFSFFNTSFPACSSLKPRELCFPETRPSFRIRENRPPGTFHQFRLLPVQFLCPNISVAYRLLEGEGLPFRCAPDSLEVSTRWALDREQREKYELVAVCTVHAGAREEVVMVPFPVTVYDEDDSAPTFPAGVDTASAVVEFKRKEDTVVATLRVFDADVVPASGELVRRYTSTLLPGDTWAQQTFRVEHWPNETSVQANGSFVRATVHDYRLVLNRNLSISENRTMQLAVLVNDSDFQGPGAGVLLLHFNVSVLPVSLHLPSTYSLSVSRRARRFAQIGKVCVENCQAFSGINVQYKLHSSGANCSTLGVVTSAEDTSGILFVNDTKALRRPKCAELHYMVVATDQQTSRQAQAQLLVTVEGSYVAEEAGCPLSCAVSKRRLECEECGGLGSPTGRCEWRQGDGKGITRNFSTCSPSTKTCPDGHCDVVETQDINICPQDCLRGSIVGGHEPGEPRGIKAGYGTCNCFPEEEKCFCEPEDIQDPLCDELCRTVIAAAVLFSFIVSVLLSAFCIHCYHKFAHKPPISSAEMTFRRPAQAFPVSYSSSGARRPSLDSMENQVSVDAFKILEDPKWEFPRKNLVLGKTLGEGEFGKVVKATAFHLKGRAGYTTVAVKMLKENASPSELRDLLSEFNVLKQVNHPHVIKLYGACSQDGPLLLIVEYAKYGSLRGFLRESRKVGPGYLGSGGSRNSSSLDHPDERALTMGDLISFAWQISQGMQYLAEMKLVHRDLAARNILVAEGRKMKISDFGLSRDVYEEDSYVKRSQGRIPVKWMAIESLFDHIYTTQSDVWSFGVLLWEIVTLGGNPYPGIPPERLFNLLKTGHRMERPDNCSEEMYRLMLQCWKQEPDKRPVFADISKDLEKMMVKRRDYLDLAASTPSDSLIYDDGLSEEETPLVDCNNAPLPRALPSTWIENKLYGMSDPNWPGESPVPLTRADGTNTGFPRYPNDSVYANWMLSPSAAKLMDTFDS

A half-life [1] of over 2 h, an inhibition [2] of over 80% and a Vd [3] of 11 L/kg were found for `Nc1nccc2cc(O[C@H]3CCCNC3)ccc12` in this work. The inhibition [4] was over 80%, the inhibition [5] was over 80% and the inhibition [6] was over 80%. It also gave a Papp B→A [7] of 36 nm/s and an inhibition [8] of over 80%.
